We go through five compounds from patent US7943795B2, “Vitamin D receptor modulators” (Eli Lilly and Company, priority 2004, dated 2011).

Molecules are shown by their SMILES.

One experiment concerns rat osteocalcin promoter. Kind of experiment: OCN (osteocalcin) promoter assay. The format is cell-based. The conditions noted are these: RG-15 (ROS 17/2.8) cells, 48 hr treatment, luciferase reporter. On the procedure:
4. The OCN Promoter test is described in the “Assay” section of the Description, infra.
The OCN (Osteocalcin) Promoter Assay
The OCN Promoter Assay is an indicator and marker for osteoporosis. Desired assay results are EC50 less than or equal to 325 nM. Preferred assay results are less than 50 nM.
The activation of osteocalcin by VDR ligands is evaluated in a rat osteoblast-like cell line RG-15 (ROS 17/2.8) stably expressing rat osteocalcin promoter fused with luciferase reporter gene. The stable cell lines are established as reported before (Activation of Osteocalcin Transcription involves interaction of protein kinase A- and Protein kinase C-dependent pathways. Boguslawski, G., Hale, L. V., Yu, X.-P., Miles, R. R., Onyia, J. E., Santerre R. F., Chandrasekhar, S. J Biol. Chem. 275, 999-1006, 2000). Confluent RG-15 cells maintained in DMEM/F-12 medium (3:1) containing 5% FBS, 300 μg/ml G418 and at 37° C. under 5% CO2/95% air atmosphere are trypsinized (0.25% trypsin) and plated into white opaque 96-well cell culture plates (25000 cells/well). After 24 hr, cells (in DMEM/F-12 medium+2% FBS) are treated with various concentrations of compounds, dissolved in DMSO. The final DMSO concentration remains at 0.01% (v/v). After 48 hr treatment, the medium is removed, cells are lysed with 50 μl of lysis buffer (From Luciferase reporter assay system, Roche Diagnostics, Indianapolis, Ind.) and then assayed for luciferase activity using the Luciferase Reporter Gene Assay kit from Boehringer Mannheim as per manufacturer's specifications.

The target in the next experiment is T1, RXR-VDR heterodimer (Homo sapiens, UniProt P11473).
T1 construct: add the Reporter gene pFR-LUC; and add the Gal-4-RXR-DEF and VP16-VDR-LBD; expressed in transfected cells; host or cells: SaOS-2 cells
T1 sequence (P11473 127-423 limits assumed): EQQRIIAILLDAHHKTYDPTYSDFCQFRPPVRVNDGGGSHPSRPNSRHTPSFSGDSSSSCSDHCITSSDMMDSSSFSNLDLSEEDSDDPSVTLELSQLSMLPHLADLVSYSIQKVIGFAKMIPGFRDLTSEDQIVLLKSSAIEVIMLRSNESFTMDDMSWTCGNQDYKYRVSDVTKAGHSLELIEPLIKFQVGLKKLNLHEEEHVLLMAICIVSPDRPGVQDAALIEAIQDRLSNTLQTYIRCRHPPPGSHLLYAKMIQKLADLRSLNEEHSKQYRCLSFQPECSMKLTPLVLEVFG
T1 sequence (P19793 201-462 partner limits assumed): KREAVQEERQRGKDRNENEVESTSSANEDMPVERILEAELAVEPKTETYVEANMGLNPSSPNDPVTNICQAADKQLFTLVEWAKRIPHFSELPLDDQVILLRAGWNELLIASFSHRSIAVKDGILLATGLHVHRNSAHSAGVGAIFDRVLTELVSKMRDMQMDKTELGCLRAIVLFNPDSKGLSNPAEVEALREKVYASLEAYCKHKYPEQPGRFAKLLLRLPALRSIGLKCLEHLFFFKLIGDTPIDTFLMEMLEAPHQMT
Kind of experiment: RXR-VDR heterodimerization (SaOS-2 cells) test. It counts as cell-based. The conditions noted are these: Gal-4-RXR-DEF / VP16-VDR-LBD, luciferase reporter. The protocol: 2. The RXR-VDR heterodimerization (SaOS-2 cells) test is described in the “Assay” section of the Description, infra.
1. The RXR-VDR Heterodimer Assay:
This assay provides the VDR activity of a test compound. It is desirable to have low EC50 values for a compound in this assay. […] Desired assay results are EC50 values less than or equal to 600 nM. Preferred assay results are less than 250 nM, and most preferably less than 150 nM.
(1) Materials and Method for RXR-VDR Heterodimerization Assay Transfection
• Method: Reagents: FuGENE 6 Transfection Reagent (Roche Cat #1 814 443); Growth Media: D-MEM High Glucose (Gibco BRL Cat #11054-020), 10% heat inactivated FBS, (Gibco BRL Cat#10092-147) 1% antibiotic-antimycotic (Ab-Am); (Gibco BRL Cat #15240-062). • Cells: Grow SaOS-2 cells in T-150 cm^2 culture flasks in growth media keeping the density at 5-6×10^5 cells/ml. Passage cells 1:3 twice a week. Add Trypsin EDTA (Gibco BRL Cat #25300-020) and incubate. Resuspend cells in plating media and transfer into growth media. • Wash Media: HBSS Low Glucose Without Phenol Red (Gibco BRL Cat #14175-095), 1% Ab-Am. Plating Media: D-MEM Low Glucose Without Phenol Red (Gibco BRL Cat #11054-020), 1% Ab-Am; D-MEM; 10% Stripped FBS (Hyclone Cat#SH30068.03 Lot #AHM9371); • Transfection/Treatment Media: D-MEM Low Glucose Without Phenol Red only; T-150 cm^2 culture flask: Use Corning Coastar T-150 cm^2 culture flask (Cat #430825) to grow the cells. • Luciferase Assay Reagent: Use Steady-Glo Luciferase Reagent from Promega (Cat #E2550) Consists of: E2533 Assay Substrate, lyophilized product and E2543 Assay Buffer. Thaw at room temperature and store. • Cell Harvesting/Count: Aspirate media from culture flask, rinse cells with HBSS and aspirate. Add trypsin and incubate. When cells appear detached, resuspend cells in growth media. Transfer into a new flask with fresh growth media for passaging the cells. Plate 96 well plates and two extra plates. Mix the cell suspension using pipette. To count the cells using a Hematocytometer. • Plate seeding: Use plating media 10% Stripped FBS in D-MEM Low Glucose, without Phenol Red, 1% Ab-Am. Plate 14 plates @ 165 μl/well. In sterile flask add cell suspension to plating media and mix. Add cells/well. Place the cells in the incubator. Cells should be about 75% confluent prior to transfection. DAY 2: Transfection: Step 1, DNA and Media: Add plain DMEM media to tubes for mixing the DNA; add the Reporter gene pFR-LUC; and add the Gal-4-RXR-DEF and VP16-VDR-LBD. Step 2, FuGENE and Media: Prepare plain DMEM media in a tubes for mixing FuGENE, add FuGENE 6 Transfection Reagent, and incubate. Step 3, FuGENE, DNA and Media Complex: Add FuGENE Media complex from step 2 to DNA Media complex from step 1 and incubate. Step 4, FuGENE, DNA and Media Complex to 96 well plate: Add FuGENE-DNA-Media complex from step 3 to each plate. Incubate. • Day 3: Dosing: Treatment preparation. Allow for transfection time. Make a stock solution of the compounds in DMSO and vortex until all the compounds have been dissolved. Further dilute in D-MEM (Low Glucose—without Phenol Red) Add compounds in quadruplicate to give desired final volume then incubate. • Day 4: Luciferase Assay: Read the plates after drug treatment. Remove part of media from all the wells and leave remainder. Add Steady-Glo Luciferase Reagent mixture/wells and incubate. Count each well using a Luminescence counter, Top Count NXT by Packard preferably set a delay between plates to reduce the background.

`CCC(CC)(c1ccc(OCC(O)C(C)(C)C)c(C)c1)c1ccc2cc(C(=O)O)ccc2c1` (single isomer, unassigned) [Ex. 2A, 6-{1-Ethyl-1-[4-(2-hydroxy-3,3-dimethyl-butoxy)-3-methyl-phenyl]-propyl}-naphthalene-2-carboxylic acid]: the EC50 in the experiment with rat osteocalcin promoter worked out at 6 nM; at RXR-VDR heterodimer, 30.2 nM.

`CCC(CC)(c1ccc(OCC(=O)C(C)(C)C)c(C)c1)c1ccc2cc(C(=O)O)ccc2c1` [Ex. 1, 6-{1-[4-(3,3-dimethyl-2-oxobutoxy)-3-methylphenyl]-1-ethylpropyl}naphthalene-2-carboxylic acid]: the EC50 with rat osteocalcin promoter (Rattus norvegicus, 48 h) was 2.6 nM; on RXR-VDR heterodimer it was 40 nM.

In the case of `CCC(CC)(c1ccc(OCC(=O)C(C)(C)C)c(C)c1)c1ccc2cc(C(=O)NCC(=O)O)ccc2c1` [Ex. 3, [(6-{1-[4-(3,3-Dimethyl-2-oxo-butoxy)-3-methylphenyl]-1-ethylpropyl}naphthalene-2-carbonyl)amino]acetic acid], the EC50 was found to be 0.1 nM in the experiment with rat osteocalcin promoter (Rattus norvegicus, 48 h) and 0.4 nM on RXR-VDR heterodimer.

As for `CCC(CC)(c1ccc(OCC(=O)C(C)(C)C)c(C)c1)c1ccc2cc(C(=O)N(C)C)ccc2c1` [Ex. 4, 6-{1-[4-(3,3-dimethyl-2-oxobutoxy)-3-methylphenyl]-1-ethylpropyl}naphthalene-2-carboxylic acid dimethylamide], the EC50 in the experiment with rat osteocalcin promoter (Rattus norvegicus, 48 h) worked out at 41 nM; on RXR-VDR heterodimer, 105 nM.

On to `CCC(CC)(c1ccc(OCC(=O)C(C)(C)C)c(C)c1)c1ccc2cc(C(=O)N(C)CC(=O)O)ccc2c1` [Ex. 5, [(6-{1-[4-(3,3-Dimethyl-2-oxobutoxy)-3-methylphenyl]-1-ethylpropyl}naphthalene-2-carbonyl)methylamino]acetic acid], for which the EC50 in the experiment on rat osteocalcin promoter (Rattus norvegicus, 48 h) came to 0.2 nM; on RXR-VDR heterodimer, 1 nM.
